# In ChEMBL document CHEMBL1149746, “Synthesis of ellagic acid O-alkyl derivatives and isolation of ellagic acid as a tetrahexanoyl derivative from Fragaria ananassa” (J Nat Prod, 1992):
# The source made the active and inactive calls. The calls are words filed in the database; no cut-off is given here.
# System: Mus musculus
# Experiment: Anticarcinogenic activity in A/J mouse assessed as inhibition of Benzo(a)pyrene-induced tumorigenesis at 0.4 g/kg in diet for 21 days by mouse lung tumor inhibition study
# Assay type: functional, organism-based
row,SMILES,Activity
1,CCCCCCCCOc1c(OC(=O)CCCCC)cc2c(=O)oc3c(OCCCCCCCC)c(OC(=O)CCCCC)cc4c(=O)oc1c2c34,Active
2,CC(=O)OC[C@H]1O[C@@H](Oc2c(OC(C)=O)cc3c(=O)oc4c(O[C@@H]5O[C@H](COC(C)=O)[C@@H](OC(C)=O)[C@H](OC(C)=O)[C@H]5OC(C)=O)c(OC(C)=O)cc5c(=O)oc2c3c45)[C@H](OC(C)=O)[C@@H](OC(C)=O)[C@@H]1OC(C)=O,Active
3,O=c1oc2c(O)c(O)cc3c(=O)oc4c(O)c(O)cc1c4c23,Active
